According to US20220241278A1 (InCarda Therapeutics, Inc., priority 2021, published 2022):

How the values were obtained:
[1] = Rat pharmacokinetics: lung tissue and plasma concentration after IV or IT administration; assay type: in vivo, Sprague Dawley rats; settings: IV data, 60 min sample collection period
Method: Lung tissue and blood were collected for analysis.
Test System: 72 male Sprague Dawley rats (Charles River Laboratories) were used for the study, 8 weeks old, body weight range at study start was 245.8-317 g.
Experimental Design and Execution: In brief, after the animals were transferred to study, all animals were randomly assigned to treatment groups per the study design below. Animals were treated either via intravenous (IV) administration of formulation R1, or via intratracheal (IT) administration for formulation R2 of the test article.
Plasma and lung concentration vs. time data was analyzed using JMP version 15.2.0. Averages for each time point are reported for groups/time points that have a minimum of 2 animals.
The Therapeutic Advantage (Rd) in Table 8 was calculated using the following equation: […]

[2] = Appearance of about 30 mg/mL imatinib free base in 30% SBEβCD, 50 mM phosphate buffer at different pH; settings: about 30 mg/mL in 30% SBβCD

appearance of the mixture ([2]; pH 3): clear solutions
appearance of the mixture ([2]; pH 5): clear solutions
appearance of the mixture ([2]; pH 7): white suspension
SMILES: Cc1ccc(NC(=O)c2ccc(CN3CCN(C)CC3)cc2)cc1Nc1nccc(-c2cccnc2)n1 [imatinib free base, imatinib]
distribution between lung tissue and plasma [1]: preferentially accumulates in the lung tissue
